# Experimental data from US11420922B2, “Hydroxylated tropolone inhibitors of nucleotidyl transferases in herpesvirus and Hepatitis B and uses therefor” (Saint Louis University, priority 2015, dated 2022).
# “Also recorded” adds a separate entry of the source. Read-outs that look alike come from different tables or passages of the source.
# How the values were obtained:
# [1] = test system: HSV-1; test: Anti-HSV-1 replication assay in Vero cells, titers by plaque assay; type: cell-based, herpes simplex virus 1; conditions: Human alphaherpesvirus 1, Vero; for log reduction at 5 µM / log reduction at 50 µM / EC50: 24 h; for log reduction at 5 µM: read-out: HSV-1 Log suppression 5 μM; for log reduction at 50 µM: read-out: HSV-1 Log suppression 50 μM; for EC50: read-out: HSV-1 EC50
# Method: Vero cells were maintained in Dulbecco's modified Eagle's medium (DMEM) containing 3% newborn calf serum, 3% bovine growth serum, 2 mM L-glutamine and 100 IU/mL penicillin and 0.1 mg/mL streptomycin (P/S). HSV-1 #6 and HSV-2 #1 are de-identified clinical isolates from the Saint Louis University Hospital. Stocks were prepared after a single passage in cell culture and were titered by standard plaque assay (Knipe and Spang, 1982). Wild-type HSV-2 used in FIG. 3 was laboratory strain 333. […] Virus stocks were grown and titered on Vero cells (Morrison and Knipe, 1996).
# (§1) Compounds to be screened were diluted in PBS supplemented to contain 2% newborn calf serum and 1% glutamine, and added in 100 μL volume to confluent cell monolayers in 24-well cluster plates. Immediately thereafter HSV-1 and HSV-2, diluted in the supplemented PBS medium, were added to the wells in 50 μl volume such that the final concentration of compound was 50 μM and 5 μM and the multiplicity of infection was 0.1. The plates were incubated at 37° C. for 1 hour and then virus-containing inoculum was removed and the wells were washed once in PBS. Compounds, diluted to 50 μM and 5 μM in DMEM supplemented to contain 2% newborn calf serum and 1% each penicillin/streptomycin, were added at 0.5 mL/well. Plates were incubated at 37° C. an additional 23 hr, and then the plates were visually inspected through a phase contrast microscope for cytopathic effect, and for toxic effect. […] The entire contents of each well were collected by scraping. Samples were frozen at −80° C., and then subsequently thawed, sonicated, and infectious virus titer was determined by standard plaque assay on Vero cell monolayers. Because the compounds were dissolved at 10 mM in 100% DMSO, equivalent dilutions of DMSO were added to additional wells as a control for effects of the diluent. Each experiment was repeated once. EC50 values were determined as above except that serial dilutions of the compound to be tested were prepared starting at 50 μM. The inhibitory values were calculated by non-linear curve-fitting in GraphPad Prism.
# [2] = test system: HSV-2; test: Anti-HSV-2 replication assay in Vero cells, titers by plaque assay; type: cell-based, herpes simplex virus 2; conditions: for log reduction at 5 µM / log reduction at 50 µM / EC50: Human alphaherpesvirus 2, Vero, 24 h; for log reduction at 5 µM: read-out: HSV-2 Log suppression 5 μM; for log reduction at 50 µM: read-out: HSV-2 Log suppression 50 μM; for inhibition of wild-type HSV-2, in words: laboratory strain, 24 hr, FIG. 4; for EC50: read-out: HSV-2 EC50
# [3] = test system: TK-deficient mutant of HSV-2 strain 333, ΔTK-; test: Replication of acyclovir-resistant TK-deficient HSV-2 mutant in Vero cells; type: cell-based, herpes simplex virus 2; conditions: 5 μM, 24 hr, FIG. 4
# Method: FIGS. 4A & 4B. Sensitivity of thymidine kinase-deficient HSV-2 to αHT compounds. […] Duplicate cultures were collected 24 hours post-infection and infectious virus titers were determined by plaque assay. Titers in compound-treated samples were subtracted from DMSO-treated samples. Values are the averages±one standard error of the mean. α-Hydroxytropolones inhibit an ACV-resistant mutant of HSV-2. […] Log10 suppression was determined relative to the diluent control. Data are the averages of data from duplicate samples±ranges from one of two independent experiments at each concentration.
# Vero cells were maintained in Dulbecco's modified Eagle's medium (DMEM) containing 3% newborn calf serum, 3% bovine growth serum, 2 mM L-glutamine and 100 IU/mL penicillin and 0.1 mg/mL streptomycin (P/S). HSV-1 #6 and HSV-2 #1 are de-identified clinical isolates from the Saint Louis University Hospital. Stocks were prepared after a single passage in cell culture and were titered by standard plaque assay (Knipe and Spang, 1982). Wild-type HSV-2 used in FIG. 3 was laboratory strain 333. The TK-deficient mutant of HSV-2 strain 333, ΔTK-, contains a 180-bp KpnI-KpnI deletion in the UL23 open reading frame that abrogates TK activity (McDermott, et al, 1984). ΔTK- was the generous gift of Jim Smiley. Virus stocks were grown and titered on Vero cells (Morrison and Knipe, 1996).
# HSV TK-deficient mutants are therefore insensitive to ACV. […] Vero cells were infected with a laboratory strain of HSV-2 and an engineered TK-deficient mutant of the same strain.
# [4] = Quantitative Vero cell toxicity (MTT); type: cell-based; conditions: African green monkey, Vero cells
# Method: (§2) Qualitative assessments of cytotoxicity were done visually by inspecting the cells in the primary screening assays. For the quantitative assays, cells were plated in 96-well plates at 1.0×10^4 per well. The next day the compounds were added at 0.78 to 100 μM in a final concentration of 1% (v/v) DMSO, and the cells were incubated for 24 hours under conditions identical to those employed for the viral replication inhibition assays. Mitochondrial toxicity was measured by incubating the cells with 0.25 mg/mL thiazolyl blue tetrazolium bromide (MTT, Sigma Aldrich Chemical Co.), the cultures were incubated for 60 min, metabolites were solubilized in acidic isopropanol, and absorbance was read at 570 nm. CC50 values were calculated by non-linear curve fitting using GraphPad Prism.
# Quantitative toxicity measurements were conducted for all compounds that suppressed HSV replication by >2 log10 at 5 μM plus a number of compounds with lesser inhibitory activity for comparison. Toxicity was assessed by […]. Cells were plated in 96-well plates at 1.0×10^4 per well. The next day compound was added in concentrations ranging from 0.78 to 100 μM in a final concentration of 1% (v/v) DMSO. The cells were incubated for 24 h under conditions identical to those employed for the viral replication inhibition assays, and then mitochondrial activity was measured with the MTT assay (Sigma Aldrich) according to the manufacturer's instructions. Percent viability was determined for each compound concentration from the […], and then 50% cytotoxic concentrations (CC50) values were calculated by non-linear curve fitting using GraphPad Prism. Consistent with the subjective assessments of toxicity, all compounds selected for quantitative toxicity assessment had CC50 values≥50 μM under these conditions (Table 1).
# [5] = test system: HBV replication; test: Chou-Talalay combination of RNAseH inhibitors with Lamivudine against HBV replication; type: cell-based, Hepatitis B virus; conditions: CI <1.0 synergy, ~1.0 additive, >1.0 antagonism
# Text: Additive interactions are shown with the red line, synergistic interactions below the line, and antagonistic interactions are above the line.
# Current nucleos(t)ide analog therapy for HBV has converted hepatitis type B from an implacably progressing illness to a controllable disease. However, patients are only very rarely cured, in part due to the incomplete inhibition of HBV replication. The inventors hypothesized that the novel RNaseH inhibitors would work synergistically with the existing nucleos(t)ide analogs because the two classes of drugs target physically distinct active sites on the viral polymerase protein. […] RNAseH inhibitors from two different chemical classes were employed, compound #1 [2-hydroxyisoquinoline-1,3(2H,4H)-dione], an HID, and #46 (β-thujaplicinol), an α-hydroxytropolone, were tested. Chou-Talaly analysis yields a combination index (CI). CI values<1.0 indicate synergy, CIs of approximately 1.0 indicate additive interactions, and CI values>1.0 indicate antagonism. CI values are calculated at various efficacy levels (EC50, EC75, EC90, and EC95), and a weighted CI value favoring higher efficacy levels is also generated. FIGS. 6A & 6B show the results of four experiments employing compound #1 and three with compound #46. […] Therefore, RNAseH inhibitors act strongly synergistically with an approved nucleos(t)ide analog drug against HBV.
# [6] = test system: patient-derived RNAseH enzymes (genotypes B, C and D); test: Biochemical RNAseH assay with patient-derived variant enzymes; parameters: species or system Hepatitis B virus
# Text: Four variant patient-derived RNAseH enzymes were expressed as recombinant enzymes, purified, and tested in an RNAseH assay with compounds #1 (FIG. 7A) and #46 (FIG. 7B) at their respective IC50s.
# HBV has at least 8 genotypes differing in sequence by 8%. Genetic diversity in the RNAseH domain is about 6%, which is easily high enough to modulate viral sensitivity to RNAseH inhibitors. Therefore, the inventors tested the RNAseH inhibitors #1 [2-hydroxyisoquinoline-1,3(2H,4H)-dione], an HID, and #46 (β-thujaplicinol), an α-hydroxytropolone, for the ability to inhibit variant RNAseHs. Twelve purified, patient-derived RNAseH enzymes (4 from each genotypes B, C and D) were tested with the compounds at their respective IC50 values in a biochemical RNAseH assay. […] Therefore, HBV's high genetic variation is unlikely to present a substantial barrier to drug development.
# [7] = test system: HSV; test: Anti-HSV SAR summary, HSV type not separated; type: cell-based, herpes simplex virus; conditions: grouped by activity at 50, 5 and 0.5 μM
# Method: as §1
# A series of over 20 synthetic αHTs were synthesized and tested to both confirm the initial SAR, and to provide leads for further optimization pursuits (FIG. 5). […] Specifically, biphenyl-containing molecules #118 and 115 inhibit HSV replication by up to 4 log10 at 200 nM. The increased potency over close analogs #111 and 113 confirmed the importance of added lipophilicity.
# [8] = Mouse liver microsome assay; type: in vitro ADME; conditions: 1 μM in mouse liver microsomes
# Method: Microsomal incubations are run at a final P450 concentration of 0.25 μM. The microsomal mixture is composed of 0.1M potassium phosphate containing 3.3 mM MgCl and 1 μM compound (final concentration). The mixture is prewarmed for 5 min at 37° C. To initiate the reaction a 12 mM stock of NAPDH (1.2 mM, final concentration) is added to the warmed microsomal mixture and aliquots are removed at 0, 5, 10, 20 and 30 min. Samples are quenched with ice cold acetonitrile containing internal standard and either 1.8 mM EDTA or EGTA (final concentration). Samples are vortexed and spun down at 3200 rpm for 5 min. The supernant is transferred to 96-deep well plates and run on LC/MS/MS.
# [9] = test system: HBV; test: HBV replication assay in HepDES19 cells; type: cell-based; conditions: Hepatitis B virus; HepDES19 cells; read-out: EC50 (HBV assay)
# Method: HBV replication assay. Inhibition of HBV replication was measured in HepDES19 cells as previously described (Cai, et al., 2014). Cells were seeded into 6-well plates and incubated in DMEM/F12, 10% fetal bovine serum (FBS), 1% penicillin/streptomycin (P/S) with 1 μg/ml tetracycline. Tetracycline was withdrawn after 24 hours. The test compound was applied to duplicate wells 48 hours later in medium containing a final DMSO concentration of 1%, and medium containing the compound was refreshed daily for the following two days. Cells were harvested and non-encapsidated nucleic acids were digested with micrococcal nuclease (New England Biolabs). HBV DNA was purified from capsids using QIAamp Cador Pathogen Mini Kit (Qiagen) with proteinase K incubation overnight at 37° C. TaqMan PCR was performed for 40 cycles at an annealing temperature of 60° C. Primers and probe (IDT Inc.) for the plus-polarity strand were: 5′[…]3′ (SEQ ID NO: 1); 5′[…]3′ (SEQ ID NO: 2); 5′/56-FAM/[…]/ZEN/[…]/3IABkFQ (SEQ ID NO: 3). Primers and probe for the minus-polarity strand were: 5′[…]3′ (SEQ ID NO: 4); 5′[…]3′ (SEQ ID NO: 5); 5′/56-FAM/[…]/ZEN/[…]/3IABkFQ (SEQ ID NO: 6).
# [10] = Cytotoxicity reported with the HBV assay (Table 4); type: cell-based; conditions: human, hepatoma cells; read-out: CC50 (HBV assay table)
# Method: as §2
# [11] = 5 μM, moi 0.1, 24 h, vs DMSO, +/− are qualitative, key not given
# [12] = 50 μM, moi 0.1, 24 h, vs DMSO, +/−/T are qualitative, key not given
smiles,measurement,setting,value
"Nc1nc2c(ncn2COCCO)c(=O)[nH]1 [ACV, Acyclovir, reference compound]",log reduction at 5 µM,[1]; [11],4.22
same,log reduction at 50 µM,[1]; [12],5.39
same,log reduction at 5 µM,[2]; [11],3.6
same,log reduction at 50 µM,[2]; [12],4.73
same,"inhibition of the TK-mutant strain, in words",[3],little effect
same,CC50 at 24 h,[4],> 100000 nM
"O=C1Cc2ccccc2C(=O)N1O [Compound 1, 2-hydroxyisoquinoline-1,3(2H,4H)-dione]",weighted CI value (combination index) with Lamivudine,[5],0.70±0.1
same,inhibition of four genotype D RNAseH enzymes,"[6]; compound at its IC50, FIGS. 7A & 7B",about 50%
same,"inhibition of all 12 variant RNAseH enzymes, in words","[6]; compound at its IC50, genotypes B, C and D",Equivalent results
Cc1cc(O)c(=O)c(O)cc1-c1ccc(-c2ccccc2)cc1 [Compound 115],EC50,[1],130 nM
same,log reduction at 5 µM,[1],4.26
same,log reduction at 50 µM,[1],4.14
same,"inhibition of wild-type HSV-2, in words",[2]; 5 μM,efficiently inhibited
same,EC50,[2],130 nM
same,log reduction at 5 µM,[2],4.52
same,log reduction at 50 µM,[2],5.11
same,"inhibition of the TK-mutant strain, in words",[3],efficiently inhibited
same,"anti-HSV SAR group, in words",[7],highly inhibitory at much lower concentrations; also recorded: fully inhibitory at 0.5 μM
same,CC50 at 24 h,[4],> 100000 nM
same,Non-P450 turn-over,[8],No
same,half-life at 1 μM,[8]; read-out: t ½,18 min
same,ER,[8]; extraction ratio,0.76
same,CLint scaled at 1 μM,"[8]; mouse, liver microsomes",285 mL/min/kg
same,predicted hepatic clearance at 1 μM,"[8]; mouse, liver microsomes, read-out: CL ′hep",68 mL/min/kg
COC(=O)c1c(C)cc(O)c(=O)c(O)c1O [Compound 196],EC50,[1],100 nM
same,log reduction at 5 µM,[1],4.17
same,log reduction at 50 µM,[1],3.99
same,log reduction at 1.5 µM,[1]; read-out: HSV-1 Log suppression 1.5 μM,3.82
same,"inhibition of wild-type HSV-2, in words",[2]; 5 μM,efficiently inhibited
same,EC50,[2],2570 nM
same,log reduction at 5 µM,[2],4.05
same,log reduction at 50 µM,[2],4.56
same,"inhibition of the TK-mutant strain, in words",[3],efficiently inhibited
same,CC50 at 24 h,[4],> 100000 nM
same,EC50,[9],6500 nM
same,CC50 at 24 h,[10],13000 nM
